# Laboratory results taken from patent publication US20020137929A1, “1 - (3-heterocyclylphenyl) isothiourea, -isourea, -guanidine and -amidine herbicidal agents” (Intellectual Property Department, BASF Aktiengesellschaft, priority 1998, published 2002).
# Experiments:
# [1] = test system: IPOHE (Morningglory, Ivyleaf); test: Preemergence herbicidal evaluation; type: in vivo, Ipomoea hederacea; conditions: rated 4-5 weeks after treatment
# Summary of the method: (§1)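 Herbicidal effect scored visually, 0-9, at 4 to 5 weeks against a control; compound applied preemergence by aqueous acetone spray to seeded soil at about 0.0156 to 0.500 kg/ha.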
# [2] = test system: GLXMAW (Soybean, Williams); test: Postemergence herbicidal evaluation; type: in vivo, Glycine max, (L.) Merr. cv Williams; conditions: postemergence
# Summary of the method: (§2)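 Young plants, roughly two weeks from seeding, receive the active ingredient as a sprayed dispersion (acetone/water 50/50, 0.5% TWEEN 20) at 40 psi. Doses span about 0.0156 to 0.500 kg/ha. A visual score from 0 to 9 compares treated with control plants four to five weeks on.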
# ORYSAT (Rice, Tebonnet) = test: Postemergence herbicidal evaluation; type: in vivo, Oryza sativa, (L.) Tebonnet; conditions: postemergence
# Summary of the method: as §2
# SETVI (Foxtail, Green) [3] = test: Postemergence herbicidal evaluation; type: in vivo, Setaria viridis; conditions: postemergence
# Summary of the method: as §2
# CYPSE (Flatsedge) = test: Preemergence weed control under flooded paddy conditions; type: in vivo, Cyperus serotinus; conditions: rated 3-4 weeks after treatment
# Summary of the method: (§3)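 Silt loam, seeds in top 0.5 cm; flood held 1.5-3 cm; test cpd as acetone/water 50/50 into flood water, ~0.0313-0.500 kg/ha a.i.; greenhouse 3-4 wk; visual 0-9 score vs control.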
# ECHCG (Barnyardgrass) [4] = test: Preemergence herbicidal evaluation; type: in vivo, Echinochloa crus-galli; conditions: rated 4-5 weeks after treatment
# Summary of the method: as §1
# GALAP (Galium) = test: Postemergence herbicidal evaluation; type: in vivo, Galium aparine; conditions: postemergence
# Summary of the method: as §2
# AMBEL (Ragweed, Common) = test: Postemergence herbicidal evaluation; type: in vivo, Ambrosia artemisifolia; conditions: postemergence
# Summary of the method: as §2
# ECHCG (Barnyardgrass) [5] = test: Postemergence herbicidal evaluation; type: in vivo, Echinochloa crus-galli; conditions: postemergence
# Summary of the method: as §2
# [6] = test system: CHEAL (Lambsquarters, Common); test: Postemergence herbicidal evaluation; type: in vivo, Chenopodium album; conditions: postemergence
# Summary of the method: as §2
# [7] = test system: ECHORC (Watergrass (Calif.)); test: Preemergence weed control under flooded paddy conditions; type: in vivo, Echinochloa oryzoides; conditions: rated 3-4 weeks after treatment
# Summary of the method: (§4)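 Ratings on a 0-9 visual scale cover stand, vigor, malformation, size, chlorosis and overall appearance relative to a control, taken three to four weeks post-treatment. Application was into flood water over freshly sown silt loam at roughly 0.0313 to 0.500 kg/ha.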
# MOOVA (Monochoria) = test: as above; type: in vivo, Monochoria vaginalis; conditions: rated 3-4 weeks after treatment
# Summary of the method: as §3
# CYPIR (Rice Flatsedge) = test: as above; type: in vivo, Cyperus iria; conditions: rated 3-4 weeks after treatment
# Summary of the method: as §4
# SETVI (Foxtail, Green) [8] = test: Preemergence herbicidal evaluation; type: in vivo, Setaria viridis; conditions: rated 4-5 weeks after treatment
# Summary of the method: as §1
# [9] = test system: CHEAL (Lambsquarters, Common); test: Preemergence herbicidal evaluation; type: in vivo, Chenopodium album; conditions: rated 4-5 weeks after treatment
# Summary of the method: as §1
# CASOB (Sicklepod) = test: Postemergence herbicidal evaluation; type: in vivo, Cassia obtusifolia; conditions: postemergence
# Summary of the method: as §2
# ZEAMX (Corn, Field) = test: Preemergence herbicidal evaluation; type: in vivo, Zea mays; conditions: rated 4-5 weeks after treatment
# Summary of the method: as §1
structure (smiles),measurement,setting,value
"CCOC(=O)CN1C(=O)C(Cc2ccccc2OCC(=O)O)S/C1=N/c1cc(-n2c(=O)cc(C(F)(F)F)n(C)c2=O)c(F)cc1Cl (stereo not shown) [Compound 113, 5-[o-(Carboxymethoxy)benzyl]-2-{{2-chloro-5-[3,6-dihydro-3-methyl-2,6-dioxo-4-(trifluoromethyl)-1(2H)-pyrimidinyl]-4-fluorophenyl}imino}-4-oxo-3-thiazolidineacetic acid, 3-ethyl ester]",Preemergence herbicidal rating IPOHE,[1]; rate 0.0156 kg/ha,0.0
same,Preemergence herbicidal rating IPOHE,[1]; rate 0.0313 kg/ha,0.0
same,Preemergence herbicidal rating IPOHE,[1]; rate 0.0625 kg/ha,0.0
same,Preemergence herbicidal rating IPOHE,[1]; rate 0.1250 kg/ha,0.0
same,Preemergence herbicidal rating IPOHE,[1]; rate 0.2500 kg/ha,1.0
same,Herbicidal rating GLXMAW,[2]; rate 0.0158 kg/ha,4.5
same,Herbicidal rating GLXMAW,[2]; rate 0.0315 kg/ha,5.5
same,Herbicidal rating GLXMAW,[2]; rate 0.0630 kg/ha,5.5
same,Herbicidal rating ORYSAT,"ORYSAT (Rice, Tebonnet); rate 0.0158 kg/ha",2.0
same,Herbicidal rating ORYSAT,"ORYSAT (Rice, Tebonnet); rate 0.0315 kg/ha",2.0
same,Herbicidal rating ORYSAT,"ORYSAT (Rice, Tebonnet); rate 0.0630 kg/ha",2.5
same,Herbicidal rating SETVI,"SETVI (Foxtail, Green) [3]; rate 0.0158 kg/ha",3.0
same,Herbicidal rating SETVI,"SETVI (Foxtail, Green) [3]; rate 0.0630 kg/ha",3.0
same,CYPSE herbicidal effect rating,CYPSE (Flatsedge); 0.0313 kg/ha,0.0
same,CYPSE herbicidal effect rating,CYPSE (Flatsedge); 0.0625 kg/ha,0.0
same,CYPSE herbicidal effect rating,CYPSE (Flatsedge); 0.1250 kg/ha,0.0
same,CYPSE herbicidal effect rating,CYPSE (Flatsedge); 0.2500 kg/ha,0.0
same,Preemergence herbicidal rating ECHCG,ECHCG (Barnyardgrass) [4]; rate 0.0156 kg/ha,0.0
same,Preemergence herbicidal rating ECHCG,ECHCG (Barnyardgrass) [4]; rate 0.0313 kg/ha,0.0
same,Preemergence herbicidal rating ECHCG,ECHCG (Barnyardgrass) [4]; rate 0.0625 kg/ha,0.0
same,Preemergence herbicidal rating ECHCG,ECHCG (Barnyardgrass) [4]; rate 0.1250 kg/ha,0.0
same,Preemergence herbicidal rating ECHCG,ECHCG (Barnyardgrass) [4]; rate 0.2500 kg/ha,0.0
same,Herbicidal rating GALAP,GALAP (Galium); rate 0.0158 kg/ha,1.0
same,Herbicidal rating GALAP,GALAP (Galium); rate 0.0315 kg/ha,0.0
same,Herbicidal rating GALAP,GALAP (Galium); rate 0.0630 kg/ha,2.0
same,Herbicidal rating AMBEL,"AMBEL (Ragweed, Common); rate 0.0158 kg/ha",5.0
same,Herbicidal rating AMBEL,"AMBEL (Ragweed, Common); rate 0.0315 kg/ha",9.0
same,Herbicidal rating AMBEL,"AMBEL (Ragweed, Common); rate 0.0630 kg/ha",9.0
same,Herbicidal rating ECHCG,ECHCG (Barnyardgrass) [5]; rate 0.0158 kg/ha,0.0
same,Herbicidal rating ECHCG,ECHCG (Barnyardgrass) [5]; rate 0.0315 kg/ha,1.0
same,Herbicidal rating ECHCG,ECHCG (Barnyardgrass) [5]; rate 0.0630 kg/ha,1.0
same,Herbicidal rating CHEAL,[6]; rate 0.0158 kg/ha,5.0
same,Herbicidal rating CHEAL,[6]; rate 0.0315 kg/ha,4.0
same,Herbicidal rating CHEAL,[6]; rate 0.0630 kg/ha,7.0
same,ECHORC herbicidal effect rating,[7]; 0.0313 kg/ha,4.0
same,ECHORC herbicidal effect rating,[7]; 0.0625 kg/ha,4.0
same,ECHORC herbicidal effect rating,[7]; 0.1250 kg/ha,5.0
same,ECHORC herbicidal effect rating,[7]; 0.2500 kg/ha,7.0
same,MOOVA herbicidal effect rating,MOOVA (Monochoria); 0.0313 kg/ha,9.0
same,MOOVA herbicidal effect rating,MOOVA (Monochoria); 0.0625 kg/ha,9.0
same,MOOVA herbicidal effect rating,MOOVA (Monochoria); 0.1250 kg/ha,9.0
same,MOOVA herbicidal effect rating,MOOVA (Monochoria); 0.2500 kg/ha,9.0
same,CYPIR herbicidal effect rating,CYPIR (Rice Flatsedge); 0.0313 kg/ha,3.0
same,CYPIR herbicidal effect rating,CYPIR (Rice Flatsedge); 0.0625 kg/ha,5.0
same,CYPIR herbicidal effect rating,CYPIR (Rice Flatsedge); 0.1250 kg/ha,5.0
same,CYPIR herbicidal effect rating,CYPIR (Rice Flatsedge); 0.2500 kg/ha,6.0
same,Preemergence herbicidal rating SETVI,"SETVI (Foxtail, Green) [8]; rate 0.0156 kg/ha",0.0
same,Preemergence herbicidal rating SETVI,"SETVI (Foxtail, Green) [8]; rate 0.0313 kg/ha",0.0
same,Preemergence herbicidal rating SETVI,"SETVI (Foxtail, Green) [8]; rate 0.0625 kg/ha",0.0
same,Preemergence herbicidal rating SETVI,"SETVI (Foxtail, Green) [8]; rate 0.1250 kg/ha",0.0
same,Preemergence herbicidal rating SETVI,"SETVI (Foxtail, Green) [8]; rate 0.2500 kg/ha",1.0
same,Preemergence herbicidal rating CHEAL,[9]; rate 0.0156 kg/ha,6.0
same,Preemergence herbicidal rating CHEAL,[9]; rate 0.0313 kg/ha,7.0
same,Preemergence herbicidal rating CHEAL,[9]; rate 0.0625 kg/ha,0.0
same,Preemergence herbicidal rating CHEAL,[9]; rate 0.1250 kg/ha,9.0
same,Preemergence herbicidal rating CHEAL,[9]; rate 0.2500 kg/ha,9.0
same,Herbicidal rating CASOB,CASOB (Sicklepod); rate 0.0158 kg/ha,0.0
same,Herbicidal rating CASOB,CASOB (Sicklepod); rate 0.0315 kg/ha,0.0
same,Herbicidal rating CASOB,CASOB (Sicklepod); rate 0.0630 kg/ha,4.0
same,Preemergence herbicidal rating ZEAMX,"ZEAMX (Corn, Field); rate 0.0156 kg/ha",0.0
same,Preemergence herbicidal rating ZEAMX,"ZEAMX (Corn, Field); rate 0.0313 kg/ha",1.0
same,Preemergence herbicidal rating ZEAMX,"ZEAMX (Corn, Field); rate 0.0625 kg/ha",0.0
same,Preemergence herbicidal rating ZEAMX,"ZEAMX (Corn, Field); rate 0.1250 kg/ha",0.0
same,Preemergence herbicidal rating ZEAMX,"ZEAMX (Corn, Field); rate 0.2500 kg/ha",1.0
